Results from article PMC10363981, “Optimizing the enzymatic release of MMAE from isoDGR-based small molecule drug conjugate by incorporation of a GPLG-PABC enzymatically cleavable linker” (Frontiers in Pharmacology, 2023).
Values joined by “and” are separate entries in the source; they are usually repeats but may differ in a detail not shown here. Equal values may be shown once. *1 amine or outer side, *2 acyl side, *3 side chain or, on linkers, in order; H or OH if unused. Where a SMILES comes first, the peptide text is derived from it. [ ]: non-standard residue; d: D form. The star is where a group is joined. Dolaproine = CO[C@@H]([C@@H]1CCCN1)[C@@H](C)C(=O)O; Dil = CC[C@H](C)[C@H](NC)[C@@H](CC(=O)O)OC; PABC = O=C(OCc1ccc(N[*:1])cc1)[*:2]; X1 = C[C@@H](N*)[C@@H](O)c1ccccc1; NMeV = CN[C@H](C(=O)O)C(C)C

Tests used:
SK-MEL-28 cells = experiment: In vitro antiproliferative activity in the presence of MMP-2 inhibitor; type: cell-based, human; conditions: 16 h pre-incubation with MMP-2 inhibitor 10 µM, then 72 h continuous treatment, 5% serum final; average ± SD, triplicate; read-out: IC50 MMP-2 inhibitor + Treatment 72 h SK-MEL-28 (αVβ3 +)
Description: (§1) For the evaluation of the in vitro antiproliferative activity of compounds, the cell viability was determined by MTT assay (3-(4,5-dimethylthiazol-2-yl)-2,5-diphenyl-tetrazolium bromide) obtained from Duchefa Biochemie (Haarlem, Netherlands).
(§2) 22 µL of MTT solution (5 mg/mL in PBS, 0.5 mg/mL final) was added to each well and after 2 h incubation at 37°C, the supernatant was removed. The precipitated purple formazan crystals were dissolved in 100 µL of a 1:1 solution of dimethylsulfoxide (DMSO; Merck, St. Louis, MO, United States): 96% Ethanol (Molar Chemicals Kft., Halásztelek, Hungary) and the absorbance was measured after 15 min at λ = 570 nm by using microplate reader CLARIOstar Plus (BMG Labtech, Ortenberg, Germany). Average background absorbance (DMSO-Ethanol) was subtracted from absorbance values of control and treated wells, and cell viability was determined relative to untreated (control) wells where cell viability was arbitrarily set to 100%. Absorbance values of treated samples were normalized versus untreated control samples and interpolated by nonlinear regression analysis with GraphPad Prism 6 software (GraphPad, La Jolla, San Diego, CA, United States) to generate sigmoidal dose-response curves from which the 50% inhibitory concentration (IC50) values of the compounds were calculated and presented as nanomolar (nM) units. The experiments were done in triplicate and each experiment was repeated three times.
(§3) The conjugate 2 and the free MMAE were tested in presence of the MMP-2 inhibitor cis-9-octadecenoyl-N-hydroxylamine (Merck) dissolved in DMSO ([You et al., 2018]). The three αVβ3 integrin and MMP-2 overexpressing cancer cell lines (U87MG, SK-MEL-28, […]) were seeded with serum containing medium ([Ellijimi et al., 2018]; [Shim et al., 2019]) and, after 8 h, were washed-out. Then, 100 µL per well of MMP-2 inhibitor (10 µM final concentration) were added and cells were incubated for 16 h, prior to the treatment. Later, the conjugate 2 and free MMAE were dissolved in 10% serum containing medium and added to reach the same concentrations evaluated in the previous test in a final volume of 100 µL per well and incubated (5% serum final) continuously for 72 h of the treatment. The experiments were performed in triplicate.

U87MG cells = experiment: as above; type: cell-based, human; conditions: 16 h pre-incubation with MMP-2 inhibitor 10 µM, then 72 h continuous treatment, 5% serum final; average ± SD, triplicate; read-out: IC50 MMP-2 inhibitor + Treatment 72 h U87MG (αVβ3 +)
Description: as §1, §2, §3

SK-OV-3 cells = experiment: as above; type: cell-based, human; conditions: 16 h pre-incubation with MMP-2 inhibitor 10 µM, then 72 h continuous treatment, 5% serum final; average ± SD, triplicate; read-out: IC50 MMP-2 inhibitor + Treatment 72 h SK-OV-3 (αVβ3 +)
Description: as §1, §2, §3

[1] = test system: SK-MEL-28 human melanoma cells; experiment: In vitro antiproliferative activity, MTT, 72 h continuous treatment (no-washout); type: cell-based; conditions: MTT, 72 h continuous treatment, no washout, 5% serum final; triplicate, repeated three times
Description: (§4) U87MG human malignant glioma, SK-MEL-28 human melanoma, SK-OV-3 human ovarian cancer, and A549 human lung cancer cell lines were purchased from ATCC. The cells were cultured in Dulbecco’s Modified Eagle’s Medium (DMEM; Biosera, Nuaille, France), supplemented with 10% heat-inactivated Fetal Bovine Serum (FBS; Biosera), and with 1% Penicillin/Streptomycin (Biosera). Cells were cultured in sterile T75 flasks with ventilation cap (Sarstedt, Nümbrecht, Germany) at 37 °C in a humidified atmosphere with 5% CO2 in ESCO CelCulture Incubator (ESCO, Friedberg, Germany). Manipulations with the cells were performed in biosafety cabinet (laminar) ESCO Sentinel Gold class II model AC2-4E8 (ESCO).
(§5) After standard trypsinization and harvesting cells by trypsin (Biosera), ethylenediaminetetraacetic acid (EDTA; Biosera) and PBS solution, 6×10^3 cells per well were seeded in serum containing (10%) growth medium to 96-well plates with flat bottom (Eppendorf, Hamburg, Germany), in a 100 μL volume per well, and incubated at 37°C.
(§6) […] The control wells were treated only with serum free medium (5% serum final).
as §1
(§7) 22 µL of MTT solution (5 mg/mL in PBS, 0.5 mg/mL final) was added to each well and after 2 h incubation at 37°C, the supernatant was removed. […] Average background absorbance (DMSO-Ethanol) was subtracted from absorbance values of control and treated wells, and cell viability was determined relative to untreated (control) wells where cell viability was arbitrarily set to 100%. […] The experiments were done in triplicate and each experiment was repeated three times.

[2] = test system: U87MG human malignant glioma cells; experiment: as above; type: cell-based; conditions: MTT, 72 h continuous treatment, no washout, 5% serum final; triplicate, repeated three times
Description: as §4, §5, §6, §1, §7

[3] = test system: SK-OV-3 human ovarian cancer cells; experiment: as above; type: cell-based; conditions: MTT, 72 h continuous treatment, no washout, 5% serum final; triplicate, repeated three times
Description: as §4, §5
(§8) In the wash out experiment, cells were incubated with the compounds (5% serum final) for 30 min, then they were washed out, and additionally incubated in growth medium (5% serum final) up to 72 h. The control wells were treated only with serum free medium (5% serum final).
as §1, §7

[4] = test system: A549 human lung cancer cells; experiment: as above; type: cell-based; conditions: MTT, 72 h continuous treatment, no washout, 5% serum final; αVβ3 low expressing line; triplicate, repeated three times
Description: as §4, §5, §8, §1, §7

[5] = test system: SK-OV-3 human ovarian cancer cells; experiment: In vitro antiproliferative activity, "kiss-and-run" washout experiment (30 min + washout + up to 72 h); type: cell-based; conditions: MTT, 30 min treatment, washout, further incubation up to 72 h, 5% serum final
Description: as §4, §5, §8, §1, §7
(§9) Recently, a new protocol for evaluating the antiproliferative activity and the targeting ability of integrin-ligand based conjugates was developed by the group of Prof. […] In this procedure, which we named “kiss-and-run” experiment, after very short initial contact times (15–30 min) of the toxin with the cells in vitro, the solution is drained, and cells are resuspended in the culture medium for a 72 h incubation. This protocol is aimed at simulating the rapid clearance of the drugs that occurs in vivo in the extracellular tumor environment, thus highlighting the ability of the conjugate to bind the integrin receptor on the cell surface.

[6] = test system: A549 human lung cancer cells; experiment: as above; type: cell-based; conditions: MTT, 30 min treatment, washout, further incubation up to 72 h, 5% serum final; αVβ3 low expressing line
Description: as §4, §5, §8, §1, §7, §9

[7] = test system: SK-MEL-28 human melanoma cells; experiment: as above; type: cell-based; conditions: MTT, 30 min treatment, washout, further incubation up to 72 h, 5% serum final
Description: as §4, §5, §8, §1, §7, §9

[8] = test system: U87MG human malignant glioma cells; experiment: as above; type: cell-based; conditions: MTT, 30 min treatment, washout, further incubation up to 72 h, 5% serum final
Description: as §4, §5, §8, §1, §7, §9

[9] = biological target: T1, recombinant human MMP-2 protein (Active) (Homo sapiens, UniProt P08253); experiment: Enzymatic-cleavage assay with MMP-2 enzyme; type: in vitro ADME; conditions: recombinant human MMP-2, enzyme:linker 1:20 (w/w), Tris·HCl buffer pH 7.4, 37 °C, 74 h, HPLC-UV 254 nm, by retention time vs free MMAE
T1 construct: with the active form of MMP-2 enzyme; purchased Abcam ab81550
T1 sequence (P08253 110-660): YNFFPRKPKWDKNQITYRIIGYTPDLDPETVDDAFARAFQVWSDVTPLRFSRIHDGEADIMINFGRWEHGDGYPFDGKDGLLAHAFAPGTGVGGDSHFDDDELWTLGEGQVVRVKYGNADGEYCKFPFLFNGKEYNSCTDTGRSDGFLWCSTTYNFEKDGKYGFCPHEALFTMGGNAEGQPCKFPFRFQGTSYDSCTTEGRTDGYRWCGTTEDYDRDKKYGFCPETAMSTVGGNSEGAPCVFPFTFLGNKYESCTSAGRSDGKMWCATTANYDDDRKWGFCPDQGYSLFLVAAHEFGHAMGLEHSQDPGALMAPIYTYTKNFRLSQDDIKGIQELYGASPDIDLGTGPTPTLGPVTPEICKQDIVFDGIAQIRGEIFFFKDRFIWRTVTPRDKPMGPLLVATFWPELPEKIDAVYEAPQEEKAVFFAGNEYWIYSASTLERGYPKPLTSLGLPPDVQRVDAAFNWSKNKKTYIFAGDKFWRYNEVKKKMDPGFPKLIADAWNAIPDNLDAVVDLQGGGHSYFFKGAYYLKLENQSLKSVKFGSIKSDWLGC
Description: The cleavage test with the MMP-2 enzyme was performed using recombinant human MMP-2 protein (Active) purchased from Abcam (ab81550). A buffer solution Tris∙HCl (50 mM), NaCl (0.2 M), CaCl2 (10 mM), Brij-35 (0.05%), ZnSO4 (50 µM), pH 7.4 was prepared in accordance with the literature ([Tauro et al., 2008]). A solution of EDTA (50 mM) was prepared for stopping the MMP-2 activity. For the assay, the MMP-2 enzyme (10 µg) was diluted with 100 µL Milli-Q Water, accordingly to the data sheet. A solution of the H2N-GPLG-PABC-MMAE 7 was prepared (0.105 mg in 0.881 mL of buffer solution). To start the assay, 25 µL MMP-2 enzyme was added to 475 µL of the linker solution to have 1:20 (w/w) enzyme: linker ratio. […] The resulting solution was diluted with 180 µL Milli-Q Water and 70 µL of acetonitrile (MeCN) and analyzed by analytical HPLC SHIMADZU LC-20AP equipped with diode array UV detector and LiChrosorb RP-18 (5 μm) C18 column. […]
Samples were analyzed using analytical HPLC SHIMADZU LC -20AP equipped with diode array UV detector and LiChrosorb® RP-18 (5 μm) C18 column, flow rate: 1 mL/min., gradient: from 90% (H2O + 0.1% TFA) / 10% (MeCN) to 40% (H2O + 0.1% TFA) / 60% (MeCN) in 16 min. to 10% (H2O + 0.1% TFA) / 90% (MeCN) in 9 min. to 10% (H2O + 0.1% TFA) / 90% (MeCN) in 5 min. to 90% (H2O + 0.1% TFA) / 10% (MeCN) in 5 min. to 90% (H2O + 0.1% TFA) / 10% (MeCN) in 5 min. […]

Compound: CC[C@H](C)[C@@H]([C@@H](CC(=O)N1CCC[C@H]1[C@H](OC)[C@@H](C)C(=O)N[C@H](C)[C@@H](O)c1ccccc1)OC)N(C)C(=O)[C@@H](NC(=O)[C@@H](NC)C(C)C)C(C)C [MMAE, monomethyl auristatin E] (H-[NMeV]V[Dil][Dolaproine]-X1)
- IC50 (SK-MEL-28 cells): 1.9 ± 0.778 nM
- IC50 (U87MG cells): 0.374 ± 0.132 nM
- IC50 (SK-OV-3 cells): 0.0334 ± 0.0119 nM
- IC50 [1]: 2.39 ± 0.395 nM
- IC50 72h SK-MEL-28 [1]: very low nanomolar range
- IC50 [2]: 0.225 ± 0.0126 nM
- IC50 [3]: 0.03 nM and 0.0307 nM
- IC50 [4]: 0.0688 ± 0.0021 nM
- IC50 [5]: 206 ± 23.6 nM
- IC50 [6]: 266 ± 16.1 nM
- IC50 [7]: 1400 ± 137 nM
- IC50 [8]: 2130 ± 216 nM

Compound: CCCCCCCC/C=C\CCCCCCCC(=O)NO [MMP-2 Inhibitor, cis-9-octadecenoyl-N-hydroxylamide]
- IC50 (SK-MEL-28 cells): > 20000 nM
- IC50 (U87MG cells): > 20000 nM
- IC50 (SK-OV-3 cells): > 20000 nM

Compound: CC[C@H](C)[C@@H]([C@@H](CC(=O)N1CCC[C@H]1[C@H](OC)[C@@H](C)C(=O)N[C@H](C)[C@@H](O)c1ccccc1)OC)N(C)C(=O)[C@@H](NC(=O)[C@H](C(C)C)N(C)C(=O)OCc1ccc(NC(=O)CNC(=O)[C@H](CC(C)C)NC(=O)[C@@H]2CCCN2C(=O)CN)cc1)C(C)C [compound 7, H2N-GPLG-PABC-MMAE] (H-GPLG[PABC][NMeV]V[Dil][Dolaproine]-X1)
- release of free MMAE on incubation with active MMP-2 [9]: not observed

Compound: N=C(N)NCCC[C@@H]1NC(=O)CNC(=O)C[C@@H](C(=O)O)NC(=O)C[C@H]2NC(=O)[C@H](CNC1=O)N(Cc1ccccc1)C2=O [compound 10, cyclo[DKP-isoDGR], reference compound]
- IC50 [5]: > 20000 nM
- IC50 [6]: > 20000 nM
- IC50 [7]: > 20000 nM
- IC50 [8]: > 20000 nM
